Assay results published in patent publication US7745483B2, “2-Halofuryl-thienyl-3-carboxamides” (Bayer CropScience AG, priority 2004, dated 2010).

Tested on: Sphaerotheca fuliginea
Test: Sphaerotheca test (cucumber)/protective
Type: in vivo
Settings: Podosphaera fuliginea, 168 h, protective, application rate 100 g/ha, evaluation 7 days after inoculation, read-out: Efficacy in %
Experimental: (§1) [table] To produce a suitable preparation of active compound, one part by weight of active compound is mixed with the stated amounts of solvent and emulsifier, and the concentrate is diluted with water to the desired concentration. To test for protective activity, young plants are sprayed with the preparation of active compound at the stated application rate. After the spray coating has dried on, the plants are inoculated with an aqueous spore suspension of Sphaerotheca fuliginea. The plants are then placed in a greenhouse at about 23° C. and a relative atmospheric humidity of about 70%. Evaluation is carried out 7 days after the inoculation. 0% means an efficacy which corresponds to that of the control, whereas an efficacy of 100% means that no infection is observed.

Structure (SMILES)	pest or weed control at 100 g/ha
CC(C)CC(C)c1ccccc1NC(=O)c1ccsc1I (stereo not drawn) [drawing 152]	98%
CC(CC(C)(C)C)c1ccccc1NC(=O)c1ccoc1I (stereo not drawn) [drawing 153]	98%
CC(CC(C)(C)C)c1ccccc1NC(=O)c1ccsc1I (stereo not drawn) [drawing 154]	100%
O=C(Nc1ccccc1-c1ccc(C(F)(F)F)cc1Cl)c1ccsc1I [drawing 155]	100%
O=C(Nc1ccncc1-c1ccc(Cl)c(Cl)c1)c1ccsc1I [drawing 156]	100%
O=C(Nc1ccccc1-c1ccc(Br)cc1Cl)c1ccsc1I [drawing 157]	100%
O=C(Nc1ccccc1-c1ccc(Br)c(F)c1)c1ccsc1I [drawing 158]	100%
O=C(Nc1ccccc1-c1ccc(Br)c(Cl)c1)c1ccsc1I [drawing 159]	100%
O=C(Nc1ccccc1-c1cccc(Cl)c1Cl)c1ccsc1I [drawing 160]	100%
O=C(Nc1ccccc1-c1cccc(Cl)c1F)c1ccsc1I [drawing 161]	100%
O=C(Nc1ccc(F)cc1-c1cccc(Cl)c1F)c1ccsc1I [drawing 162]	100%
CC(C)(C)CCc1cc(F)ccc1NC(=O)c1ccsc1I [drawing 163]	100%
O=C(Nc1ccccc1-c1ccc(Cl)cc1)c1ccoc1I [drawing 164]	100%
O=C(Nc1ccccc1-c1ccc(Br)cc1)c1ccoc1I [drawing 165]	100%
O=C(Nc1ccccc1-c1ccc(Cl)c(Cl)c1)c1ccoc1I [drawing 166]	100%
O=C(Nc1ccccc1-c1ccc(Cl)c(F)c1)c1ccoc1I [drawing 167]	98%
O=C(Nc1ccccc1-c1ccc(Cl)cc1)c1ccsc1I [drawing 168]	95%

Structure (SMILES)	pest or weed control at 100 g/ha
O=C(Nc1ccccc1-c1ccc(Br)cc1)c1ccsc1I [drawing 169]	100%
O=C(Nc1ccccc1-c1ccc(Cl)c(F)c1)c1ccsc1I [drawing 170]	98%
CC(C[Si](C)(C)C)c1ccccc1NC(=O)c1ccoc1I (stereo not drawn) [drawing 171]	100%
O=C(Nc1ccccc1-c1ccc(C(F)(F)F)cc1)c1ccsc1I [drawing 172]	93%
O=C(Nc1ccc(F)cc1-c1ccc(Cl)c(Cl)c1)c1ccsc1I [drawing 173]	100%
Cc1ccc(-c2ccccc2NC(=O)c2ccsc2I)cc1F [drawing 174]	100%
CC(C)CC(C)c1cc(F)ccc1NC(=O)c1ccsc1I (stereo not drawn) [drawing 175]	97%
CO/N=C/c1ccc(-c2ccccc2NC(=O)c2ccsc2I)cc1F [drawing 176]	98%
CC(C)CC(C)c1sccc1NC(=O)c1ccsc1I (stereo not drawn) [drawing 177]	92%
CC(C)CC(C)c1ccccc1NC(=O)c1ccsc1Br (stereo not drawn) [drawing 178]	100%
CC(CC(C)(C)C)c1ccccc1NC(=O)c1ccsc1Br (stereo not drawn) [drawing 179]	97%
O=C(Nc1ccccc1-c1ccc(Cl)cc1)c1ccsc1Br [drawing 180]	100%
O=C(Nc1ccccc1-c1ccc(Cl)c(Cl)c1)c1ccsc1Br [drawing 181]	100%
O=C(Nc1ccccc1-c1ccc(Cl)c(F)c1)c1ccsc1Br [drawing 182]	100%
O=C(Nc1ccccc1-c1ccc(F)c(Cl)c1)c1ccsc1I [drawing 183]	100%
C[Si](C)(C)CCc1sccc1NC(=O)c1ccsc1I [drawing 184]	100%

Tested on: Venturia inaequalis
Test: Venturia test (apple)/protective
Type: in vivo
Settings: 240 h, protective, application rate 100 g/ha, evaluation 10 days after inoculation, read-out: Efficacy in %
Experimental: as §1, with “amount” for “amounts”, “conidia” for “spore”, “the apple scab pathogen Venturia inaequalis and then remain in an incubation cabin at about 20° C. and 100% relative atmospheric humidity for 1 day.” for “Sphaerotheca fuliginea.”, “21°” for “23°”, “90%.” for “70%.”, “10” for “7”

Structure (SMILES)	pest or weed control at 100 g/ha
CC(C)CC(C)c1ccccc1NC(=O)c1ccsc1I (stereo not drawn) [drawing 185]	100%
CC(CC(C)(C)C)c1ccccc1NC(=O)c1ccoc1I (stereo not drawn) [drawing 186]	94%
CC(CC(C)(C)C)c1ccccc1NC(=O)c1ccsc1I (stereo not drawn) [drawing 187]	100%
C[Si](C)(C)CCc1ccccc1NC(=O)c1ccsc1I [drawing 188]	100%
O=C(Nc1ccccc1-c1ccc(C(F)(F)F)cc1Cl)c1ccsc1I [drawing 189]	97%
O=C(Nc1ccncc1-c1ccc(Cl)c(Cl)c1)c1ccsc1I [drawing 190]	98%
O=C(Nc1ccccc1-c1ccc(Br)cc1Cl)c1ccsc1I [drawing 191]	100%
O=C(Nc1ccccc1-c1ccc(Br)c(F)c1)c1ccsc1I [drawing 192]	100%
O=C(Nc1ccccc1-c1ccc(Br)c(Cl)c1)c1ccsc1I [drawing 193]	100%
O=C(Nc1ccccc1-c1cccc(Cl)c1Cl)c1ccsc1I [drawing 194]	98%
O=C(Nc1ccccc1-c1cccc(Cl)c1F)c1ccsc1I [drawing 195]	89%
O=C(Nc1ccc(F)cc1-c1cccc(Cl)c1F)c1ccsc1I [drawing 196]	100%
CC(C)(C)CCc1cc(F)ccc1NC(=O)c1ccsc1I [drawing 197]	100%
O=C(Nc1ccccc1-c1ccc(Cl)cc1)c1ccoc1I [drawing 198]	100%
O=C(Nc1ccccc1-c1ccc(Br)cc1)c1ccoc1I [drawing 199]	100%
O=C(Nc1ccccc1-c1ccc(Cl)c(Cl)c1)c1ccoc1I [drawing 200]	99%
O=C(Nc1ccccc1-c1ccc(Cl)c(F)c1)c1ccoc1I [drawing 201]	100%
O=C(Nc1ccccc1-c1ccc(Cl)cc1)c1ccsc1I [drawing 202]	100%
O=C(Nc1ccccc1-c1ccc(Br)cc1)c1ccsc1I [drawing 203]	91%

Structure (SMILES)	pest or weed control at 100 g/ha
O=C(Nc1ccccc1-c1ccc(Cl)c(Cl)c1)c1ccsc1I [drawing 204]	100%
O=C(Nc1ccccc1-c1ccc(Cl)c(F)c1)c1ccsc1I [drawing 205]	100%
CC(C[Si](C)(C)C)c1ccccc1NC(=O)c1ccoc1I (stereo not drawn) [drawing 206]	99%
CC(C[Si](C)(C)C)c1ccccc1NC(=O)c1ccsc1I (stereo not drawn) [drawing 207]	100%
O=C(Nc1ccccc1-c1ccc(C(F)(F)F)cc1)c1ccsc1I [drawing 208]	99%
O=C(Nc1ccc(F)cc1-c1ccc(Cl)c(Cl)c1)c1ccsc1I [drawing 209]	100%
Cc1ccc(-c2ccccc2NC(=O)c2ccsc2I)cc1F [drawing 210]	100%
CC1CC(C)(C)c2cccc(NC(=O)c3ccsc3I)c21 (stereo not drawn) [drawing 211]	100%
CC(C)CC(C)c1cc(F)ccc1NC(=O)c1ccsc1I (stereo not drawn) [drawing 212]	100%
CO/N=C/c1ccc(-c2ccccc2NC(=O)c2ccsc2I)cc1F [drawing 213]	100%
CC(C)CC(C)c1sccc1NC(=O)c1ccsc1I (stereo not drawn) [drawing 214]	100%
CC(C)CC(C)c1ccccc1NC(=O)c1ccsc1Br (stereo not drawn) [drawing 215]	100%
CC(CC(C)(C)C)c1ccccc1NC(=O)c1ccsc1Br (stereo not drawn) [drawing 216]	98%
O=C(Nc1ccccc1-c1ccc(Cl)cc1)c1ccsc1Br [drawing 217]	100%
O=C(Nc1ccccc1-c1ccc(Cl)c(Cl)c1)c1ccsc1Br [drawing 218]	100%
O=C(Nc1ccccc1-c1ccc(Cl)c(F)c1)c1ccsc1Br [drawing 219]	100%
O=C(Nc1ccccc1-c1ccc(F)c(Cl)c1)c1ccsc1I [drawing 220]	100%
C[Si](C)(C)CCc1sccc1NC(=O)c1ccsc1I [drawing 221]	100%

Tested on: Puccinia recondita
Test: Puccinia test (wheat)/protective
Type: in vivo
Settings: 240 h, protective, application rate 500 g/ha, evaluation 10 days after inoculation, read-out: Efficacy in %
Experimental: [table] To produce a suitable preparation of active compound, 1 part by weight of active compound is mixed with the stated amounts of solvent and emulsifier, and the concentrate is diluted with water to the desired concentration. To test for protective activity, young plants are sprayed with the preparation of active compound at the stated application rate. After the spray coating has dried on, the plants are sprayed with a conidia suspension Puccinia recondita. The plants remain in an incubation cabin at 20° C. and 100% relative atmospheric humidity for 48 hours. The plants are then placed in a greenhouse at a temperature of about 20° C. and a relative atmospheric humidity of 80% to promote the development of rust pustules. Evaluation is carried out 10 days after the inoculation. 0% means an efficacy which corresponds to that of the control, whereas an efficacy of 100% means that no infection is observed.

Structure (SMILES)	pest or weed control at 500 g/ha
CC(C)CC(C)c1ccccc1NC(=O)c1ccsc1I (stereo not drawn) [drawing 260]	100%
CC(C)CC(C)c1ccccc1NC(=O)c1ccoc1I (stereo not drawn) [drawing 261]	100%
C[Si](C)(C)CCc1ccccc1NC(=O)c1ccsc1I [drawing 262]	97%
CC(C)(C)CCc1ccccc1NC(=O)c1ccsc1I [drawing 263]	97%
O=C(Nc1ccccc1-c1ccc(Br)c(F)c1)c1ccsc1I [drawing 264]	100%
